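These data come from cells grown in 96-well plates and exposed to compound for 48 hours at five concentrations. The concentration for 50% growth inhibition is given as GI50.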 The source made the active and inactive calls. No stated cut-off is given here; in the data, active = GI50 up to about 1.1 µM and inactive = higher.
Tests used:
Test in all cases: inhibition of tumour cell growth, NCI panel, 48 h
[1] = test system: OVCAR-8
[2] = test system: RPMI-8226
[3] = test system: ACHN
[4] = test system: M14
[5] = test system: OVCAR-5
[6] = test system: RXF 393
[7] = test system: SR
[8] = test system: HOP-62
[9] = test system: SK-OV-3
[10] = test system: SK-MEL-28
[11] = test system: SF-295
[12] = test system: LOX IMVI
[13] = test system: HCT-15
[14] = test system: NCI-H460
[15] = test system: EKVX
[16] = test system: SW-620
[17] = test system: SF-268
[18] = test system: SK-MEL-2
[19] = test system: MDA-MB-231

COC(=O)C1=C(c2cc(OC)c(OC)c(OC)c2)OC(c2ccc(OC)c(OC)c2)C1 (stereo not given)
GI50 [1]: 47.9 µM (inactive) | GI50 [2]: 75.2 µM (inactive) | GI50 [3]: 51.2 µM (inactive) | GI50 [4]: 61.1 µM (inactive) | GI50 [5]: > 100 µM (inactive) | GI50 [6]: 35.9 µM (inactive) | GI50 [7]: 51.6 µM (inactive) | GI50 [8]: 59.3 µM (inactive) | GI50 [9]: 40.5 µM (inactive) | GI50 [10]: 79.8 µM (inactive) | GI50 [11]: 35.6 µM (inactive) | GI50 [12]: 29.3 µM (inactive) | GI50 [13]: 43.5 µM | GI50 [14]: 39.5 µM (inactive) | GI50 [15]: > 100 µM (inactive) | GI50 [16]: 33.5 µM (inactive) | GI50 [17]: 55.8 µM (inactive) | GI50 [18]: 61.2 µM (inactive)

CC1(C2CCC3(C)OC3C2)CO1 (stereo not given)
GI50 [1]: > 100 µM (inactive) | GI50 [2]: > 100 µM (inactive) | GI50 [3]: > 100 µM (inactive) | GI50 [4]: > 100 µM (inactive) | GI50 [5]: > 100 µM (inactive) | GI50 [6]: > 100 µM (inactive) | GI50 [7]: > 100 µM (inactive) | GI50 [8]: > 100 µM (inactive) | GI50 [9]: > 100 µM (inactive) | GI50 [10]: > 100 µM (inactive) | GI50 [11]: > 100 µM (inactive) | GI50 [12]: > 100 µM (inactive) | GI50 [14]: > 100 µM (inactive) | GI50 [15]: > 100 µM (inactive) | GI50 [16]: > 100 µM (inactive) | GI50 [17]: > 100 µM (inactive) | GI50 [18]: > 100 µM (inactive)

CCOC(=O)C1(Cc2ccccc2)Cc2ccccc2C1=O (stereo not given)
GI50 [1]: 28.8 µM (inactive) | GI50 [2]: 20.4 µM (inactive) | GI50 [3]: 28.1 µM (inactive) | GI50 [4]: 16.6 µM (inactive) | GI50 [5]: 30.4 µM (inactive) | GI50 [7]: 22 µM (inactive) | GI50 [8]: 35.2 µM (inactive) | GI50 [9]: 30.8 µM (inactive) | GI50 [10]: 24.8 µM (inactive) | GI50 [11]: 37.1 µM (inactive) | GI50 [12]: 24.1 µM (inactive) | GI50 [13]: 30.9 µM | GI50 [14]: 27.2 µM (inactive) | GI50 [15]: 20.7 µM (inactive) | GI50 [16]: 33.7 µM (inactive) | GI50 [17]: 29.2 µM (inactive) | GI50 [19]: 25.9 µM (inactive) | GI50 [18]: 14.8 µM (inactive)

COC(=O)CSc1[nH]c2nc(C)nc(Nc3ccccc3)c2c1C#N
GI50 [1]: > 10 µM (inactive) | GI50 [2]: > 10 µM (inactive) | GI50 [4]: > 10 µM (inactive) | GI50 [6]: > 10 µM (inactive) | GI50 [7]: > 10 µM (inactive) | GI50 [8]: > 10 µM (inactive) | GI50 [9]: > 10 µM (inactive) | GI50 [10]: > 10 µM (inactive) | GI50 [11]: > 10 µM (inactive) | GI50 [12]: > 10 µM (inactive) | GI50 [13]: > 10 µM | GI50 [15]: > 10 µM (inactive) | GI50 [16]: > 10 µM (inactive) | GI50 [17]: > 10 µM (inactive) | GI50 [19]: > 10 µM (inactive)

CN(C)NC(=O)NC12CC3CC(CC(C3)C1)C2
GI50 [1]: > 100 µM (inactive) | GI50 [2]: > 100 µM (inactive) | GI50 [3]: > 100 µM (inactive) | GI50 [5]: > 100 µM (inactive) | GI50 [6]: > 10 µM (inactive) | GI50 [7]: > 100 µM (inactive) | GI50 [9]: > 100 µM (inactive) | GI50 [10]: > 10 µM (inactive) | GI50 [11]: > 100 µM (inactive) | GI50 [12]: > 100 µM (inactive) | GI50 [13]: > 100 µM | GI50 [14]: > 100 µM (inactive) | GI50 [15]: > 100 µM (inactive) | GI50 [16]: > 100 µM (inactive) | GI50 [17]: > 100 µM (inactive) | GI50 [18]: > 100 µM (inactive)

COc1ccc2c(c1)[n+]([O-])c(/C(C)=N/NC(=O)CC#N)c[n+]2[O-]
GI50 [1]: > 100 µM (inactive) | GI50 [2]: 54.7 µM (inactive) | GI50 [3]: > 100 µM (inactive) | GI50 [4]: > 100 µM (inactive) | GI50 [5]: > 100 µM (inactive) | GI50 [6]: > 100 µM (inactive) | GI50 [7]: > 100 µM (inactive) | GI50 [8]: > 100 µM (inactive) | GI50 [9]: > 100 µM (inactive) | GI50 [10]: > 100 µM (inactive) | GI50 [11]: > 100 µM (inactive) | GI50 [12]: > 100 µM (inactive) | GI50 [13]: > 100 µM | GI50 [14]: > 100 µM (inactive) | GI50 [15]: > 100 µM (inactive) | GI50 [16]: 11.1 µM (inactive) | GI50 [17]: > 100 µM (inactive) | GI50 [18]: > 100 µM (inactive)

O=C(n1c2ccccc2c2nnc(S)nc21)C(F)(F)F
GI50 [1]: > 100 µM (inactive) | GI50 [4]: > 100 µM (inactive) | GI50 [5]: > 100 µM (inactive) | GI50 [6]: 33.4 µM (inactive) | GI50 [8]: > 100 µM (inactive) | GI50 [9]: > 100 µM (inactive) | GI50 [10]: 60.5 µM (inactive) | GI50 [11]: > 100 µM (inactive) | GI50 [12]: > 100 µM (inactive) | GI50 [13]: > 100 µM | GI50 [14]: > 100 µM (inactive) | GI50 [15]: > 100 µM (inactive) | GI50 [16]: > 100 µM (inactive) | GI50 [17]: > 100 µM (inactive) | GI50 [18]: > 10 µM (inactive)

COc1cc2c(cc1OC)C1Cc3ccc(OC)c(OC)c3C[N+]1([O-])CC2 (stereo not given)
GI50 [1]: > 100 µM (inactive) | GI50 [2]: 74.5 µM (inactive) | GI50 [3]: > 100 µM (inactive) | GI50 [4]: > 100 µM (inactive) | GI50 [5]: > 100 µM (inactive) | GI50 [8]: > 100 µM (inactive) | GI50 [10]: > 100 µM (inactive) | GI50 [11]: > 100 µM (inactive) | GI50 [14]: > 100 µM (inactive) | GI50 [15]: > 100 µM (inactive) | GI50 [16]: > 100 µM (inactive) | GI50 [17]: > 100 µM (inactive) | GI50 [18]: > 100 µM (inactive)
